Source: ChEMBL document CHEMBL1201862, “PubChem BioAssay data set” (2004)
Active and inactive are the calls of the source.

Tests used:
[1] = biological target: T1, Heat shock factor protein 1 (Mus musculus, UniProt P38532); assay: HSF1 potentiators in luciferase reporter cells, confirmation, cell-based, NIH3T3, luminescence, dose retest (AID 435004); assay type: functional;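 further: stress induced by proteasome inhibitor MG132 added 30 min after compound; luciferase reporter driven by HSF1 response element in NIH3T3 cells; actives raise luminescence as potentiators of the MG132 stress response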
T1 sequence (P38532 whole entry): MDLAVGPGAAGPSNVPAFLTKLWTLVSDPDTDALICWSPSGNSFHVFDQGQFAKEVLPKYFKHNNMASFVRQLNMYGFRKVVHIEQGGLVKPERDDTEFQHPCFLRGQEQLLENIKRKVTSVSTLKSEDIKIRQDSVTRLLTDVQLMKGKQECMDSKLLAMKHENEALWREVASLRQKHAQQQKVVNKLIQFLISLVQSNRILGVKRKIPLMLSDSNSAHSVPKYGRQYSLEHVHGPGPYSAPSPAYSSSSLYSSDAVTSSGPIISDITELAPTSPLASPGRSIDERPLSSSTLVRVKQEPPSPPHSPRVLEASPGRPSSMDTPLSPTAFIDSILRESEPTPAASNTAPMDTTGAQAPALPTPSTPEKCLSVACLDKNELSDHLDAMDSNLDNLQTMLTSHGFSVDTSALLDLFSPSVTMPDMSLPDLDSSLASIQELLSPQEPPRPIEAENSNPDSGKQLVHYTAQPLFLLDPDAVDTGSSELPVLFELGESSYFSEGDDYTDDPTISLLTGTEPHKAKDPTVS

Cytochrome P450 2D6 = Cytochrome P450 2D6 (Homo sapiens, UniProt P10635);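 further: CYP2D6 member of a cytochrome P450 panel assay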
Cytochrome P450 2C19 = Cytochrome P450 2C19 (Homo sapiens, UniProt P33261); assay: Cytochrome panel assay with activity outcomes. Panel member name: p450-cyp2c19 Compounds with AC50 equal or less than 10 uM are considered active; assay type: functional
cells [2] = assay type: functional, cell-based
cells [3] = assay type: functional, cell-based; remark: listed apart in the source
[4] = biological target: T2, Polyadenylate-binding protein 1 (Homo sapiens, UniProt P11940); assay: PABP1 MLLE–PAM2 interaction inhibitors, dose response, miRNA deadenylation inhibitor project, biochemical, fluorescence polarization, Cy5-PAM2 peptide, secondary (AID 602260); assay type: functional; conditions: read-out: IC50_Mean
[5] = biological target: T2, Polyadenylate-binding protein 1; assay: PABP1 MLLE–PAM2 binding inhibitor potency, dose response, biochemical, fluorescence polarization, FITC-PAM2 peptide (AID 602259); assay type: functional; conditions: read-out: IC50_Mean
Vero = assay: cells; assay type: functional; conditions: Chlorocebus sabaeus
BJ [6] = assay: cytotoxicity toward BJ-TERT-LT-ST fibroblasts, dose response, cell-based, RAS-independent, luminescence (AID 1935); assay type: functional; conditions: Homo sapiens;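 further: BJ fibroblasts immortalized with TERT plus LT and ST oncogenes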
[7] = cytotoxicity toward DRD oncogenic fibroblasts, dose response, cell-based, non-viral oncogenic, luminescence (AID 1934); assay type: functional; conditions: Homo sapiens
Streptococcus = assay: Group A Streptococcus viability loss, dose response, counter-screen for streptokinase expression inhibitor project, luminescence, BacTiterGlo (AID 1915); assay type: functional, organism-based;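 further: potency for reduction of bacterial viability or growth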
[8] = inhibitors of SNCA 5'UTR-driven reporter translation, confirmation, H4 neuroglioma cells, luminescence (AID 1988); assay type: functional, cell-based
[9] = system: Streptococcus sp. 'group A'; assay: growth inhibition of control SK(-) GAS strain, dose response, counter-screen for streptokinase expression inhibitor project, luminescence, kanamycin, BacTiterGlo, confirmation (AID 1900); assay type: functional, organism-based
BJ [10] = assay: cytotoxicity toward BJ-TERT fibroblasts, dose response, cell-based, RAS-independent, luminescence (AID 1933); assay type: functional; conditions: Homo sapiens
BJ [11] = assay: cells; assay type: functional, cell-based; conditions: Homo sapiens
[12] = Luminescence Cell-Based Dose Response HTS to Identify Inhibitors of 5'UTR Stem-Loop Driven Prion Protein mRNA Translation in H4 Neuroglioblastoma Cells. [Related pubchem assays: 1827 (Project Summary), 1813 (Primary HTS)]; assay type: functional
[13] = inhibitors of firefly luciferase expression or activity, dose response, H4 neuroglioma cells, luminescence (AID 1990); assay type: functional, cell-based
Streptokinase A = biological target: T3, Streptokinase A (Streptococcus pyogenes serotype M1, UniProt P10520); assay: S. pyogenes streptokinase expression inhibitors, potency, dose response, plasminogen activation absorbance, OD405 (AID 1914); assay type: functional, Streptococcus pyogenes M1 GAS;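 further: secreted streptokinase activity via plasminogen activation per viability signal from cell pellet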
T3 sequence (P10520 whole entry): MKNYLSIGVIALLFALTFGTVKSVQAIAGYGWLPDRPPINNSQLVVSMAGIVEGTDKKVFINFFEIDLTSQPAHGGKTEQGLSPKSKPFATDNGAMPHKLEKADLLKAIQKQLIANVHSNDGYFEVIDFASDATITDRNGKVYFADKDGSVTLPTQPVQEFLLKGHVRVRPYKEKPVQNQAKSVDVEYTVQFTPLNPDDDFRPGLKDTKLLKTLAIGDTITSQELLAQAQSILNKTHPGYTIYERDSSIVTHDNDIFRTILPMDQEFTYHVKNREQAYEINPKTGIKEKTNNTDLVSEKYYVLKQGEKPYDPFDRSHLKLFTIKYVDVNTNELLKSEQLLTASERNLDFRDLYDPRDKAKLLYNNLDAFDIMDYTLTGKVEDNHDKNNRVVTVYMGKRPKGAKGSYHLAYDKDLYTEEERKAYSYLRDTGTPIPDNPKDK

[14] = biological target: T4, Ubiquitin-conjugating enzyme E2 N (Homo sapiens, UniProt P61088); assay type: functional;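 further: Dose-response confirmation in a TR-FRET assay detecting UBC13-driven polyubiquitin chain formation, inhibition measured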
T4 sequence (P61088 whole entry): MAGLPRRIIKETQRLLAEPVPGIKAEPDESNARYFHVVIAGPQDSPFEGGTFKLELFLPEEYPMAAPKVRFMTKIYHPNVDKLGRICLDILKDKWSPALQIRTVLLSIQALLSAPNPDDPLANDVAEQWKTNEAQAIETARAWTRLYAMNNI

T2 sequence (P11940 whole entry): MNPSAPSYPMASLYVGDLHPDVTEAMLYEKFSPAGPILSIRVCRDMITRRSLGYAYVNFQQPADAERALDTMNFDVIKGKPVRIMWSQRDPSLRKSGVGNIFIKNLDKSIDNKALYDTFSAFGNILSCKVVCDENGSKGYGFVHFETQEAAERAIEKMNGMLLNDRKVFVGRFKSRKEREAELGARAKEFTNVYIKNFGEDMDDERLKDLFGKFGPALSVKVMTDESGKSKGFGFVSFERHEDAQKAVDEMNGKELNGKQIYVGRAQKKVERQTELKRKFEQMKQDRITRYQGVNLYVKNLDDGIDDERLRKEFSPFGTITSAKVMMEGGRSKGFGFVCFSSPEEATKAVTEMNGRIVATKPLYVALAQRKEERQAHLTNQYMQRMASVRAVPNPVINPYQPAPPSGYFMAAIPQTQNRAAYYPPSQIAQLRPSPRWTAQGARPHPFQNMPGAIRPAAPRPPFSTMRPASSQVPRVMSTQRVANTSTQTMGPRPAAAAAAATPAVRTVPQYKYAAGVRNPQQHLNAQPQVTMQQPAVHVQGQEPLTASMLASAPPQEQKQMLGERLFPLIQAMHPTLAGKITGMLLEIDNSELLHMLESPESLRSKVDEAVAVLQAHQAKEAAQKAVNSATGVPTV
Sequence of Cytochrome P450 2D6 (P10635 whole entry): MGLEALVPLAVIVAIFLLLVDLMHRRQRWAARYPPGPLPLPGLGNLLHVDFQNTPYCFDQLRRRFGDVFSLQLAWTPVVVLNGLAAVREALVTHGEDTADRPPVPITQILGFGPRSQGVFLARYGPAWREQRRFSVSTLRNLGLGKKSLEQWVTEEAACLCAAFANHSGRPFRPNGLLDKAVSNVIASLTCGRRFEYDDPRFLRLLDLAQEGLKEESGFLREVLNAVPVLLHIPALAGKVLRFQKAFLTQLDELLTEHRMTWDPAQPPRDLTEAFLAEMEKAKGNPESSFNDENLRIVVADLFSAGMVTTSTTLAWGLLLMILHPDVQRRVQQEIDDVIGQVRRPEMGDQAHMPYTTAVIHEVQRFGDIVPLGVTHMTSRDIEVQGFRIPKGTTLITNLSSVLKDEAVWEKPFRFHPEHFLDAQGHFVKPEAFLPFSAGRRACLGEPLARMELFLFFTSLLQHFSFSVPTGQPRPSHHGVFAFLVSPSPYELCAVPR
Sequence of Cytochrome P450 2C19 (P33261 whole entry): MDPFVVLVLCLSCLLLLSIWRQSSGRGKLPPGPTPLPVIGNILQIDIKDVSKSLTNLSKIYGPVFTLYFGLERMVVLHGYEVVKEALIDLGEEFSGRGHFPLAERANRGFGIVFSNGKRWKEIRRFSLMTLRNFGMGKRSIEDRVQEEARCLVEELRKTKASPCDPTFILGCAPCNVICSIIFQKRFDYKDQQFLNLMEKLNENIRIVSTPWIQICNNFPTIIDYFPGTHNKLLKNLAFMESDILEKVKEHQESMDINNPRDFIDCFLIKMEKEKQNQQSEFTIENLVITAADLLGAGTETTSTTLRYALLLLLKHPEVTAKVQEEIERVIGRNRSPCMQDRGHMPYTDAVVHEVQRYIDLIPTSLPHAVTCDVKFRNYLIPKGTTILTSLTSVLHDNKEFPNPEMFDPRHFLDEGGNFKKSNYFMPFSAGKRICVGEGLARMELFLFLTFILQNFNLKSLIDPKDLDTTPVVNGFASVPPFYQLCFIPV

COc1cc(NC(=O)C2=C(N3CCOCC3)/C(=C\c3ccc(Br)cc3)CC2)cc(OC)c1OC
EC50 [1]: > 260 µM (inactive)

Cc1cc(C)cc(Oc2ccccc2/C=C\C(=O)O)c1
EC50 [1]: > 260 µM (inactive)

Cc1ccc(C(=O)Nc2nnc(C3CCCCC3)s2)o1
EC50 [1]: 44.6 µM (active)

O=c1c2ccccc2nnn1CSc1ccc2c(c1)OCCO2
AC50 (Cytochrome P450 2D6): 28.2 µM (inconclusive)

c1ccc(Nc2ncncc2-c2ccoc2)cc1
AC50 (Cytochrome P450 2D6): 25.1 µM (inconclusive) | AC50 (Cytochrome P450 2C19; read-out: AC50): 15.8 µM (inconclusive)

CC(=O)N1c2ccc(S(=O)(=O)NCCc3ccccc3)cc2CC1C (stereo not drawn)
EC50 (cells [2]): > 350 µM (not active) | EC50 (cells [3]): > 350 µM (not active)

Cc1cc(NC(=O)c2ccccc2)n(-c2nc3ccccc3[nH]2)n1
EC50 (cells [2]): > 350 µM (not active) | EC50 (cells [3]): 63.9 µM (active)

COC(=O)c1sc(N)c(C(=O)OC)c1CSc1nc2sc3c(c2c(=O)n1C)CCC3
EC50 [1]: > 260 µM (inactive)

COc1ccccc1CCNS(=O)(=O)c1cc2c3c(c1)C(C)C(=O)N3CCC2 (stereo not drawn)
EC50 (cells [2]): > 350 µM (not active) | EC50 (cells [3]): > 350 µM (not active)

Cc1ccc(Nc2nc(CSc3nnc(-c4ccncc4)n3C)cs2)cc1
EC50 (cells [2]): > 350 µM (not active) | EC50 (cells [3]): > 350 µM (not active)

CCNc1nc(Cl)nc(NNC(=O)C(C)Oc2ccccc2)n1 (stereo not drawn)
EC50 (cells [2]): > 350 µM (not active) | EC50 (cells [3]): 47 µM (active)

C=CCOC(=O)/C(=C\c1cccc2ccccc12)NC(=O)c1ccccc1
AC50 (Cytochrome P450 2D6): 22.4 µM (inconclusive)

Cc1ccc(S(=O)(=O)N[C@H]2COC(=O)C/C=C\[C@@H](C)[C@H](NS(=O)(=O)c3ccc(C)cc3)COC(=O)[C@H](C)NC(=O)C/C=C\[C@H]2C)cc1
AC50 (Cytochrome P450 2D6): 3.98 µM (inconclusive) | AC50 (Cytochrome P450 2C19): inconclusive

Cc1cc(C=O)c(C)n1-c1ccc(NC2CCCC2)c([N+](=O)[O-])c1
AC50 (Cytochrome P450 2D6): 8.91 µM (inconclusive)

C=CCN(C(=O)CCC(=O)Nc1cc(C)on1)C(C(=O)NC(C)(C)C)c1cccc(OC)c1OC (stereo not drawn)
EC50 [1]: > 260 µM (inactive)

Cc1nc2[nH]c(=S)[nH]c(=O)c2nc1C
IC50 [4]: > 66 µM (inactive) | IC50 [5]: > 66 µM (inactive)

COc1cc(OCc2ccccc2)c(C(=O)/C=C/c2ccc3c(c2)OCO3)c(OC)c1OC
CC50 (Vero): > 25 µM (active)

COCCCN(CC(=O)O)S(=O)(=O)c1cccc(Cl)c1
EC50 [1]: > 260 µM (inactive)

Cc1nnc(O)c2c(NC(=O)CSc3c(Cl)cccc3Cl)oc(C)c12
IC50 [4]: > 66 µM (inactive) | IC50 [5]: > 66 µM (inactive)

COc1ccc(Cl)cc1C=CC=NNS(=O)(=O)c1ccc(C)cc1
CC50 (Vero): > 25 µM (active)

O=C(N/N=C/c1cc(Br)c(Br)o1)c1cccnc1
IC50 [4]: > 66 µM (inactive) | IC50 [5]: 44.3 µM (inactive)

N#C/C(C[n+]1cn(NC(=O)Nc2ccccc2)cn1)=N/O
EC50 [1]: > 260 µM (inactive)

COc1ccc(-c2c/c(=N\c3nc(-c4ccccc4)c(C)s3)c3ccccc3o2)cc1O
EC50 (BJ [6]): 1.82 µM (active) | EC50 [7]: 1.9 µM (active) | EC50 (Streptococcus): > 150 µM (not active) | EC50 [8]: 7.32 µM (active) | EC50 [9]: 4.5 µM (active) | EC50 (BJ [10]): 1.71 µM (active) | EC50 (BJ [11]): 3.22 µM (active) | CC50 (Vero): 3.22 µM (active) | EC50 [12]: 5.8 µM (active) | EC50 [13]: 5.76 µM (inconclusive) | EC50 (Streptokinase A): 15.5 µM (active)

CC(C)(C)c1ccc(C(=O)N/N=C/c2ccccn2)cc1
IC50 [14]: > 20 µM (inactive) | EC50 (Streptococcus): 29.8 µM (active) | EC50 [9]: 9.57 µM (active) | EC50 (Streptokinase A): > 150 µM (not active)

Cc1ccc(Cc2cnc(NC(=O)c3cccs3)s2)cc1
AC50 (Cytochrome P450 2D6): 15.8 µM (inconclusive)
